2 molecules from article PMC6368337, “GluClR-mediated inhibitory postsynaptic currents reveal targets for ivermectin and potential mechanisms of ivermectin resistance” (PLoS Pathogens, 2019) can be followed below.

In general, logP refers to a log measure of how a compound divides between an organic and an aqueous phase. Low readings indicate lower lipophilicity, high ones higher lipophilicity.

Data set [1] addresses T1, β GluClRs (Haemonchus contortus, UniProt P91730). Description: Single channel recording, outside-out patches, β GluClRs. The data set is classed as cell-based, H. contortus. From the text:
(§1) To explore whether a similar mechanism applies to β-containing GluClRs, we recorded single receptor currents in excised patches from cells transfected with either the α and β subunits (1:1) or the β subunit alone. […] By contrast, patches from cells transfected with the β subunit alone invariably opened to an amplitude of 0.4 pA (Fig 6C). Amplitude histograms confirmed two amplitude levels for αβ GluClRs and a single amplitude for the β GluClRs (Fig 6D). […] We infer that the αβ GluClRs that open to 0.7 pA likely contain a greater proportion of β subunits. This is consistent with β GluClRs having the smallest amplitude and α GluClRs having the greatest amplitude (1.8 pA) under similar recording conditions. The calculated conductance values for the corresponding amplitudes for αβ GluClRs was 15.2 pS and 8.9 pS and for the β GluClRs was 5.1 pS.
(§2) Single-channel currents were recorded from outside-out excised patches at a clamped potential of −70 mV. The single channel conductance was calculated by dividing the mean current by the net driving force at a clamped potential of ‐70 mV, after accounting for reversal and liquid junction potentials. Excised patches were continuously perfused via a gravity-fed double-barrelled glass tube, which contained extracellular bath solution containing (in mM), 140 NaCl, 5 KCl, 1 MgCl2, 2 CaCl2, 10 HEPES, and 10 D-glucose and titrated to pH 7.4. Glutamate and IVM were dissolved in this extracellular solution. Recording electrodes were pulled from borosilicate glass (G150F-3; Warner Instruments), coated with a silicone elastomer (Sylgard-184; Dow Corning) and heat-polished to a final tip resistance of 4–15 MΩ when filled with an intracellular solution containing (in mM) 145 CsCl, 2 MgCl2, 2 CaCl2, 10 HEPES, and 5 EGTA, pH 7.4. […] A 10 mM stock of IVM (Sigma-Aldrich) was dissolved in 100% DMSO and kept frozen at ‐20°C. Fresh working stocks of IVM at 5 nM were prepared by dissolving the appropriate quantity directly in extracellular solution. 100% DMSO when dissolved in extracellular solution alone at the same concentration as was present in working solutions containing 5 nM IVM had no effect on patches excised from cells transfected with GluClRs or from untransfected cells.
(§3) Currents were recorded using an Axopatch 200B amplifier (Molecular Devices), filtered at 5 kHz and digitized at 20 kHz using Clampex (pClamp 10 suite, Molecular Devices) via a Digidata 1440A digitizer.
(§4) Group data were analysed in SigmaPlot 13.0 using one-way ANOVAs, where p < 0.05 was taken as the significance threshold and expressed as mean ± SEM. Tests for normally distributed data are built into the SigmaPlot software. Confocal images were captured and analysed with Zen 2012 SP2 (Zeiss) software. Oocyte concentration-response data were fit to a Hill equation to obtain an EC50 and Hill co-efficient for each oocyte recording. These parameters were then averaged across multiple oocyte experiments of the same type. Single channel recordings were analysed in QuB software. […] Patches yielded between 30–250 individual active periods. […] The selected critical times eliminated periods of receptor desensitisation while retaining singe receptor active periods. Mean active period duration and intra-activation open probability was estimated from each patch. Group means were obtained by averaging across multiple patches for each recording condition.

Data set [2] addresses T2, αβ (1:1) GluClRs (Haemonchus contortus, UniProt O46124+P91730). Description: Two-electrode voltage clamp in oocytes, αβ (1:1) GluClRs. The data set is classed as cell-based, H. contortus. Conditions: glutamate-gated current, oocytes, 1:1. The method, then:
(§5) cDNAs encoding the α (avr-14b) (pcDNA 3.1+) or β (pUNIV) GluClR subunits of H. contortus were nuclear injected into oocytes (NASCO, WI USA) or transfected into HEK293AD cells (CellBank Australia) using a calcium phosphate-DNA co-precipitate method. Synapse formation between neurons and HEK293 cells was promoted by co-transfecting neuroligin 2A or 1B and the cDNA encoding CD4 surface antigen was also added to the transfection mixture so as to identify transfected cells. The oocytes and HEK cells were used for experiments 2–3 days after the introduction of the cDNAs. All experiments were done at room temperature (22 ± 1°C).
(§6) Xenopus laevis oocytes were harvested by surgical incision. The oocytes were then defolliculated with 1.5 mg/ml collagenase for 2 hours. Free oocytes were rinsed with calcium-free OR-2 solution containing (in mM) 82.5 NaCl, 2 KCl, 1 MgCl2, 5 HEPES, pH 7.4 and mature stage V or VI oocytes were isolated for experiments. The DNAs coding for α and β subunits were nuclear injected into the oocytes using a Nanoliter 2000 microinjector (WPI Inc) at a ratio of (α:β), 1:0, 0:1, 1:1 and 1:50. The total amount of injected DNA in all combinations was 400 ng ml^−1, including the 1:50 (α:β) combination (8 ng of DNA encoding the α and 392 ng of DNA encoding β subunits). Injected oocytes were incubated in ND96 storage solution (in mM) 96 NaCl, 2 KCl, 1 MgCl2.6H2O, 1.8 CaCl2, 5 HEPES, 50 μg ml^−1 gentamicin, 2.5 sodium pyruvate, 0.5 theophylline, pH 7.4 at 16°C for 2–3 days before experiment.
(§7) For the two-electrode voltage clamp recordings, each oocyte was secured in a cell bath that was continually perfused with ND96 recording solution (ND96 storage solution without pyruvate, theophylline and gentamicin). […] The two microelectrodes contained 3 M KCl and had resistances of 0.2–2 MΩ. Recordings were done using Clampex 10.2 software (Molecular Devices) at a clamped voltage of −40 mV. Currents were low-pass filtered at 200 Hz, sampled at 2 kHz using a Gene Clamp 500B amplifier and digitised by a Digidata 1440A interface. The IVM (IVM B1a) concentration-response experiments were standardised by using an application protocol that consisted of applying increasing concentrations of IVM for, respectively, 3 min, 3 min, 3 min, 2 min, 1 min, 1 min and 0.5 min.
Group data were analysed in SigmaPlot 13.0 using one-way ANOVAs, where p < 0.05 was taken as the significance threshold and expressed as mean ± SEM. Tests for normally distributed data are built into the SigmaPlot software. Confocal images were captured and analysed with Zen 2012 SP2 (Zeiss) software. Oocyte concentration-response data were fit to a Hill equation to obtain an EC50 and Hill co-efficient for each oocyte recording. […] Single channel recordings were analysed in QuB software. […]
For orientation: In two-electrode clamp one electrode senses voltage and the other passes current.

Data set [3] concerns the target T2, αβ (1:1) GluClRs. Description: Single channel recording, outside-out patches, αβ (1:1) GluClRs. Type of data set: cell-based, H. contortus. The note with it: for mean active period duration: −70 mV.
From the text: as §1, §2, §3, §4

In data set [4] the target is T1, β GluClRs. Description: Two-electrode voltage clamp in oocytes, β GluClRs. Type of data set: cell-based, H. contortus. Conditions: glutamate-gated current, oocytes. The protocol:
as §5
Xenopus laevis oocytes were harvested by surgical incision. The oocytes were then defolliculated with 1.5 mg/ml collagenase for 2 hours. Free oocytes were rinsed with calcium-free OR-2 solution containing (in mM) 82.5 NaCl, 2 KCl, 1 MgCl2, 5 HEPES, pH 7.4 and mature stage V or VI oocytes were isolated for experiments. The DNAs coding for α and β subunits were nuclear injected into the oocytes using a Nanoliter 2000 microinjector (WPI Inc) at a ratio of (α:β), 1:0, 0:1, 1:1 and 1:50. […]
Group data were analysed in SigmaPlot 13.0 using one-way ANOVAs, where p < 0.05 was taken as the significance threshold and expressed as mean ± SEM. […] Confocal images were captured and analysed with Zen 2012 SP2 (Zeiss) software. […] Single channel recordings were analysed in QuB software. […]

Data set [5] addresses α (avr-14b) GluClRs (Haemonchus contortus, UniProt O46124). Description: Two-electrode voltage clamp in oocytes, α GluClRs. The data set is classed as cell-based, H. contortus. The protocol:
as §5, §6, §7
(§8) Group data were analysed in SigmaPlot 13.0 using one-way ANOVAs, where p < 0.05 was taken as the significance threshold and expressed as mean ± SEM. Tests for normally distributed data are built into the SigmaPlot software. Confocal images were captured and analysed with Zen 2012 SP2 (Zeiss) software. Oocyte concentration-response data were fit to a Hill equation to obtain an EC50 and Hill co-efficient for each oocyte recording. These parameters were then averaged across multiple oocyte experiments of the same type. Single channel recordings were analysed in QuB software. […] The selected critical times eliminated periods of receptor desensitisation while retaining singe receptor active periods. Mean active period duration and intra-activation open probability was estimated from each patch. Group means were obtained by averaging across multiple patches for each recording condition.

Data set [6] concerns the target αβ (1:50) GluClRs (Haemonchus contortus, UniProt O46124+P91730). Description: Two-electrode voltage clamp in oocytes, αβ (1:50) GluClRs. The data set is classed as cell-based, H. contortus. The method, then:
as §5, §6, §7, §8

Data set [7] is described as follows: Lipophilicity (logP). The data set is classed as physicochemical.
The test system of data set [8] is Untransfected HEK293 cells. Description: Membrane partitioning, time-lapse fluorescence. The method, then: Two types of experiments were conducted with IVM-bdpy. The first was aimed at monitoring the time-course of membrane accumulation. Untransfected HEK293 cells were incubated in extracellular solution containing 500 nM IVM-bdpy and time-lapse images were taken over a period of 30 min (Fig 8A). The change in total membrane fluorescence averaged from 5 repeat experiments was then plotted against time and fitted to a standard exponential function (Fig 8B). In a control experiment, the corresponding accumulation rate was also determined for bdpy. To obtain the net membrane partitioning time-course for IVM-1, the data for the bdpy alone was subtracted from the data obtained for IVM-bdpy (Fig 8B). The time constants for the three plots were 6.5 min for the IVM-bdpy, 8.2 min for the bdpy fluorophore and 6.0 min for IVM-1. As the lipophilic properties of IVM and IVM-1 are similar (logPs of 5.4 and 5.1, respectively), we infer this analysis quantitatively reflects the membrane partitioning properties of IVM. […] It should be noted, however, that the IVM-bdpy experiment was done using a 100-fold higher concentration of drug in un-transfected cells and represents passive membrane accumulation, whereas the current plateau involved IVM binding to and activating receptors.
Membrane partitioning and FRAP experiments were performed on an LSM 710 inverted 2-photon confocal microscope equipped with a 40X water immersion objective lens (1.2 NA/280 μM WD/0.208 μM/pixel and a GFP/Alexa 488 filter set. Untransfected HEK293 cells at a confluency of 50–75% were plated onto 35-mm glass bottom dishes one day prior to experiments. The IVM-bdpy fluorophore was dissolved in 100% DMSO and stored at ‐20°C at a concentration of 24 mM.
A Mai Tai eHP 2-photon laser/760-1040 nm was used as an excitation source (power at 920 nm) for the FRAP experiments. The laser and bleaching power were set to 7% and 75% respectively. Membrane partitioning images were taken for 35 min at 0.5 Hz after replacing the cell medium (extracellular solution) with one containing the IVM-bdpy probe at a concentration of 500 nM. FRAP images were taken at a frequency of 0.5 Hz for 10 min after a 30 min equilibration period in 500 nM IVM-bdpy.

Molecules are shown by their SMILES.

T1 sequence (P91730 19-432): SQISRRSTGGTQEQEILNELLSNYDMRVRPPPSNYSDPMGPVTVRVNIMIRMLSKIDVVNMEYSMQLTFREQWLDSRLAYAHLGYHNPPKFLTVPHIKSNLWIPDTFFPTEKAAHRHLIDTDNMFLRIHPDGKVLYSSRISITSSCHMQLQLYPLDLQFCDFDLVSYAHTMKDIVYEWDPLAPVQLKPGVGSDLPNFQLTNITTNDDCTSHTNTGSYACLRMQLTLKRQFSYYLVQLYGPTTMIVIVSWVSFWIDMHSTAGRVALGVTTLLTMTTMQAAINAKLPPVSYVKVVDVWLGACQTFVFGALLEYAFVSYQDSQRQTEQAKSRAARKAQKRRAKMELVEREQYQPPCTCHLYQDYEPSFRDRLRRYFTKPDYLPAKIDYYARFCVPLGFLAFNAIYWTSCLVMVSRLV
T2 sequence (P91730 19-432): as above
T2 sequence (O46124 entry or part of it): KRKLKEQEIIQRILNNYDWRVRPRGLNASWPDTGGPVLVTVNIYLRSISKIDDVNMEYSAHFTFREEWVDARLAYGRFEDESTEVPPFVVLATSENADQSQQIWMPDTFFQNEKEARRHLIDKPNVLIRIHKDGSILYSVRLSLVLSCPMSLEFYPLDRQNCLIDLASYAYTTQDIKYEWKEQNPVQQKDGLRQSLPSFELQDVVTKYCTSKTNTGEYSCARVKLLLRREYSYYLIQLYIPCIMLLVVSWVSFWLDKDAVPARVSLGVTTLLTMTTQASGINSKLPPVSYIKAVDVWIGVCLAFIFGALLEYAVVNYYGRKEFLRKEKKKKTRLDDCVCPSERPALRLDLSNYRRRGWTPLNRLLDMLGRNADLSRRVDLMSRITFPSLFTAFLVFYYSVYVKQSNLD
αβ (1:50) GluClRs, sequence (O46124 entry or part of it): as above
αβ (1:50) GluClRs, sequence (P91730 19-432): as the sequence (P91730 19-432) above
α (avr-14b) GluClRs, sequence (O46124 entry or part of it): as the sequence (O46124 entry or part of it) above

For the molecule `N[C@@H](CCC(=O)O)C(=O)O` [Glutamate, L-glutamate], the “intra-activation open probability (PO)” value is reported as 0.63 ± 0.07 in data set [1] (2 μM glutamate), 0.70 ± 0.11 in data set [1] (3 mM glutamate), 0.54 ± 0.06 in data set [3] (2 μM glutamate) and 0.83 ± 0.03 in data set [3] (3 mM glutamate). The “mean active period duration” value in data set [1] (2 μM glutamate, −70 mV) is listed as 7.5 ± 1.8 ms; in data set [1] (3 mM glutamate), 164 ± 31 ms; in data set [3] (2 μM glutamate, both stoichiometries pooled), 40 ± 10 ms; in data set [3] (3 mM glutamate, pooled), 146 ± 15 ms. Further, the maximal current in data set [2] is 2.0 ± 0.4 μA; in data set [4], 1.9 ± 0.3 μA; in data set [5] (glutamate-gated current, oocytes) it was 3.7 ± 0.8 μA; in data set [6] (glutamate-gated current, oocytes, 1:50), 2.2 ± 0.4 μA.
On to `CC[C@H](C)[C@H]1O[C@]2(CC[C@@H]1C)C[C@@H]1C[C@@H](C/C=C(\C)[C@@H](O)[C@@H](C)/C=C/C=C3\CO[C@@H]4[C@H](O)C(C)=C[C@@H](C(=O)O1)[C@]34O)O2` [IVM-1], for which, in data set [7], the logP is 5.1. The “efficacy (maximal current normalised to saturating glutamate) compared to IVM” value is “significantly less efficacious than IVM” in data set [5] (30 nM, normalised to 5 mM glutamate) and “preservation of efficacy” in data set [6] (30 nM, normalised to 5 mM glutamate, αβ 1:50). Also, the “differential efficacy between α and αβ (1:50) GluClRs” value in data set [6] (30 nM, α versus αβ (1:50)) is given as “retained differential efficacy”. Moreover, in data set [8] (bdpy data subtracted from IVM-bdpy data), the “net membrane partitioning time constant” value was determined as 6.0 min. The “time to plateau of membrane partitioning” value in data set [8] (subtraction plot (IVM-bdpy minus bdpy)) is 18 to 20 min.
